# Reference: the supplement of paper PMC13380429
# Columns and labels:
# Settings in all cases: 72 h
# Vero E6 [1] = assay: drug sensitivity score (DSS) for viability; higher = more toxic; extreme values may be limits of the assay
# Caco-2 [2] = assay: as above
# Calu-3 [3] = assay: as above
# U2OS [4] = assay: as above
# HepG2 [5] = assay: as above
# Vero E6 [6] = assay: relative viability EC50 (midpoint between 100% and the lowest measured viability); higher = less toxic
# Caco-2 [7] = assay: as above
# Calu-3 [8] = assay: as above
# U2OS [9] = assay: as above
# HepG2 [10] = assay: as above
# Vero E6 [11] = assay: cell viability relative to DMSO; higher = less toxic
# Caco-2 [12] = assay: as above
# Calu-3 [13] = assay: as above
# U2OS [14] = assay: as above
# HepG2 [15] = assay: as above
Compound,drug sensitivity score (Vero E6 [1]),drug sensitivity score (Caco-2 [2]),drug sensitivity score (Calu-3 [3]),drug sensitivity score (U2OS [4]),drug sensitivity score (HepG2 [5]),relative viability EC50 (Vero E6 [6]),relative viability EC50 (Caco-2 [7]),relative viability EC50 (Calu-3 [8]),relative viability EC50 (U2OS [9]),relative viability EC50 (HepG2 [10]),cell viability (Vero E6 [11]; 1 nM),cell viability (Vero E6 [11]; 10 nM),cell viability (Vero E6 [11]; 100 nM),cell viability (Vero E6 [11]; 1000 nM),cell viability (Vero E6 [11]; 10000 nM),cell viability (Caco-2 [12]; 1 nM),cell viability (Caco-2 [12]; 10 nM),cell viability (Caco-2 [12]; 100 nM),cell viability (Caco-2 [12]; 1000 nM),cell viability (Caco-2 [12]; 10000 nM),cell viability (Calu-3 [13]; 1 nM),cell viability (Calu-3 [13]; 10 nM),cell viability (Calu-3 [13]; 100 nM),cell viability (Calu-3 [13]; 1000 nM),cell viability (Calu-3 [13]; 10000 nM),cell viability (U2OS [14]; 1 nM),cell viability (U2OS [14]; 10 nM),cell viability (U2OS [14]; 100 nM),cell viability (U2OS [14]; 1000 nM),cell viability (U2OS [14]; 10000 nM),cell viability (HepG2 [15]; 1 nM),cell viability (HepG2 [15]; 10 nM),cell viability (HepG2 [15]; 100 nM),cell viability (HepG2 [15]; 1000 nM),cell viability (HepG2 [15]; 10000 nM)
COCCCOc1ccnc(C[S+]([O-])c2nc3ccccc3[nH]2)c1C (stereo not given) [rabeprazole],0,0,0,0,0,> 10 µM,> 10 µM,> 10 µM,> 10 µM,> 10 µM,98%,108%,94.3%,105%,100%,99.4%,102%,97.3%,94.8%,95.6%,98%,92.7%,98.6%,103%,100%,102%,97.4%,100%,99.9%,100%,97.6%,106%,91.9%,94.6%,95.8%
NCc1cc(O)no1 [muscimol],0,0,0,0,0,> 10 µM,> 10 µM,> 10 µM,> 10 µM,> 10 µM,98.8%,97%,93.1%,97.1%,101%,94.7%,96.5%,98.4%,99.5%,103%,91.6%,95.7%,98.3%,104%,97.3%,101%,94.6%,99.6%,98.6%,97.3%,96.8%,105%,97.7%,98.1%,94.5%
CC(C)(C)C#Cc1cc(N(C(=O)[C@H]2CC[C@H](C)CC2)[C@H]2CC[C@@H](O)CC2)c(C(=O)O)s1 [VX-222],0,0,0,0,0,> 10 µM,> 10 µM,> 10 µM,> 10 µM,> 10 µM,104%,96.1%,106%,99.8%,102%,103%,114%,102%,99.8%,101%,92.5%,94.9%,99.2%,99.3%,104%,105%,106%,98.2%,105%,97.6%,98.7%,101%,91.7%,96.2%,101%
CCCCC#Cc1nc(NC)c2ncn([C@@H]3O[C@H](CO)[C@@H](O)[C@H]3O)c2n1 [HEMADO],0,0,0,0,0,> 10 µM,> 10 µM,> 10 µM,> 10 µM,> 10 µM,110%,101%,105%,105%,98.5%,103%,89%,102%,104%,102%,102%,108%,84.6%,102%,91.1%,102%,102%,96.1%,103%,101%,111%,103%,99.7%,103%,104%
CCOC(=O)c1ccc(C#Cc2ccc3c(c2)C(C)(C)CCS3)nc1 [tazarotene],0,0.7,0.7,0,0,> 10 µM,> 10 µM,> 10 µM,> 10 µM,> 10 µM,101%,97.7%,94.9%,94.9%,110%,91.3%,96.3%,96.4%,86%,83.8%,99.5%,101%,100%,87.5%,91.2%,93.7%,98%,92.2%,92.2%,93.6%,108%,92.8%,119%,105%,110%
CCN(CC)C(C)C(=O)c1ccccc1 (stereo not given) [amfepramone],0,0,0,0,0,> 10 µM,> 10 µM,> 10 µM,> 10 µM,> 10 µM,92.3%,102%,106%,106%,86.8%,117%,95.9%,103%,102%,128%,109%,85.5%,93.6%,93.7%,103%,100%,95.3%,98.1%,95.2%,98.6%,106%,102%,100%,96.6%,101%
Cc1nc2cnc3ccc(C#Cc4cccnc4)cc3c2n1-c1ccc(C(C)(C)C#N)cc1 [BAG-956],10.8,15.3,16.3,15.8,7.9,0.41 µM,0.139 µM,0.144 µM,0.202 µM,0.604 µM,104%,103%,97.5%,42.6%,35.3%,97.8%,101%,79.7%,33.5%,33.3%,92.7%,96.2%,79%,27.7%,30.2%,97.4%,101%,88.8%,24.9%,23.8%,104%,103%,93.3%,62.3%,41.4%
CC1(C)OC[C@H](NC(=O)Nc2ccc(Br)cc2Br)[C@H](c2ccccc2)O1,0,0.1,0,0,0,> 10 µM,> 10 µM,> 10 µM,> 10 µM,> 10 µM,102%,101%,101%,93.9%,95.7%,94.5%,98.8%,95.3%,103%,85.8%,99.1%,89.6%,111%,103%,92.8%,93.3%,98%,96.6%,98.5%,89.6%,95.4%,89.8%,93.6%,91.1%,95.5%
COc1cc2c(cc1OC)[C@@H](Cc1cc(OC)c(OC)c(OC)c1)[N+](C)(CCCOC(=O)CC/C=C/CCC(=O)OCCC[N+]1(C)CCc3cc(OC)c(OC)cc3[C@H]1Cc1cc(OC)c(OC)c(OC)c1)CC2 (stereo not given in full) [mivacurium],0,0,0,0,0,> 10 µM,> 10 µM,> 10 µM,> 10 µM,> 10 µM,106%,112%,105%,97.7%,93%,107%,98.9%,109%,123%,94.5%,112%,97.6%,101%,89.7%,94%,102%,99.8%,98.6%,96.3%,100%,101%,95.2%,99.4%,84.3%,97.7%
CCCNC(C)C(=O)Nc1c(C)csc1C(=O)OC (stereo not given) [articaine],0,0,0,0,0,> 10 µM,> 10 µM,> 10 µM,> 10 µM,> 10 µM,93.4%,93.1%,96.1%,97.3%,108%,98.5%,96.7%,95.2%,104%,105%,94%,94.6%,100%,93.5%,106%,96.5%,95.8%,99.7%,92.8%,105%,97.9%,105%,110%,104%,112%
CNS(=O)(=O)CCc1ccc2[nH]cc(C3CCN(C)CC3)c2c1 [naratriptan],0,0,0,0,0,> 10 µM,> 10 µM,> 10 µM,> 10 µM,> 10 µM,98.9%,100%,91.9%,99.7%,96.7%,97.5%,105%,92.7%,100%,105%,114%,94.1%,94.7%,97%,107%,102%,106%,99.2%,99.8%,95.9%,102%,98.2%,105%,103%,108%
N[C@]1(C(=O)O)CC[C@@H](C(=O)O)C1 [cis-ACPD],0,0,0,0,0,> 10 µM,> 10 µM,> 10 µM,> 10 µM,> 10 µM,103%,99.1%,99.4%,98.1%,102%,102%,94.7%,101%,104%,94.5%,95.3%,101%,108%,107%,101%,98.7%,94.1%,98.1%,101%,97.9%,105%,111%,99.5%,96.1%,103%
CC(COc1ccccc1Cc1ccccc1)N1CCCCC1 (stereo not given) [benproperine],0,0.3,0,0,1.5,> 10 µM,> 10 µM,> 10 µM,> 10 µM,> 10 µM,112%,100%,103%,101%,98.1%,90.6%,106%,96.4%,100%,83.4%,94.8%,106%,89%,103%,88.4%,92.8%,96.3%,92%,102%,89.3%,104%,109%,96.5%,85.7%,87.9%
CCN(CC)C(=O)Nc1ccc(OCC(O)CNC(C)(C)C)c(C(C)=O)c1 (stereo not given) [celiprolol],0,0,0,0,0,> 10 µM,> 10 µM,> 10 µM,> 10 µM,> 10 µM,103%,104%,102%,106%,97.3%,95.4%,106%,112%,103%,106%,104%,104%,106%,98.7%,96.4%,101%,100%,96.5%,95.9%,95.3%,99.6%,98.9%,106%,88.1%,103%
